According to article PMC9506414, “Novel 2,6,9-Trisubstituted Purines as Potent CDK Inhibitors Alleviating Trastuzumab-Resistance of HER2-Positive Breast Cancers” (Pharmaceuticals, 2022):
“Also recorded” adds a separate entry of the source. Where two headings read alike, the source gives them in different places.

What was measured:
HCC1954 cells = test: Antiproliferation assay (Cell-titer Glo, 72 h); format: cell-based; conditions: Homo sapiens, 72 h, means and standard deviations from three independent assays, read-out: HCC1954 (GI50/μM)
Experimental: (§1) Breast-cancer cell lines (SK-Br3, HCC-1954) were purchased from Korea Cell Line Bank (Seoul, Korea) and were cultured in RPMI medium supplemented with 10% FBS and penicillin/streptomycin (Welgene, Seoul, Korea). All cell lines were maintained at 37 °C in a cell incubator in the presence of 5% CO2.
(§2) Breast-cancer cells in culture media (100 μL volume/well, 5000 SK-Br3 cells/well, 1000 HCC-1954 cells/well) were seeded in tissue culture-treated 96-well plates, and incubated at a cell incubator for 24 h. Serially diluted compounds (3-fold, 10 point from 10 mM, duplicated) were pre-plated and 500 nL of compound solutions were pin-transferred to the cells in the assay plates using pintool system (JANUS liquid handler, PerkinElmer, Waltham, MA, USA) and incubated at a cell incubator for 72 h. Cell-titer Glo^TM reagent (50 μL, Promega Corp., Madison, WI, USA) was added to each well, and the luminescence signal was read using an Envision^TM plate reader (PerkinElmer, Waltham, MA, USA). The titration curve fitting and IC50 values were generated using Prism 7.0 s/w (GraphPad, San Diego, CA, USA).

SK-Br3 cells = test: Antiproliferation assay (Cell-titer Glo, 72 h); format: cell-based; conditions: Homo sapiens, SK-BR-3; 72 h; means and standard deviations from three independent assays; read-out: SK-Br3 (GI50/μM)
Experimental: as §1, §2

[1] = In vitro liver microsomal stability; format: in vitro ADME; conditions: liver microsomes, pH 7.4, 30 m at 37 °C with NADPH regeneration system
Experimental: Each compound (final 1 μM, duplicated) was added to each 0.1 M PBS solution (pH 7.4) containing liver microsome of three different species (human, dog, mouse). After a brief (5 m) incubation at 37 °C, the NADPH regeneration system (Promega Corp., Madison, WI, USA) was added, then the mixture was incubated at 37 °C for 30 m. The reaction was terminated by adding acetonitrile containing an internal standard (chlorpropamide), then the mixture was centrifuged at 15,000 rpm, 4 °C for 5 m. The supernatant solution was injected to LC/MS/MS system (TSQ Vantage Triple-Stage Quadrupole Mass Spectrometer, ThermoFisher Scientific, Waltham, MA, USA). The remaining substrates were analyzed with Xcalibur 4.4 s/w using an MRM (multiple reaction monitoring) quantitation mode.

CYP1A2 = biological target: T1, CYP1A2 (Homo sapiens, UniProt P05177); test: CYP inhibition; format: in vitro ADME
T1 sequence (P05177 1-516): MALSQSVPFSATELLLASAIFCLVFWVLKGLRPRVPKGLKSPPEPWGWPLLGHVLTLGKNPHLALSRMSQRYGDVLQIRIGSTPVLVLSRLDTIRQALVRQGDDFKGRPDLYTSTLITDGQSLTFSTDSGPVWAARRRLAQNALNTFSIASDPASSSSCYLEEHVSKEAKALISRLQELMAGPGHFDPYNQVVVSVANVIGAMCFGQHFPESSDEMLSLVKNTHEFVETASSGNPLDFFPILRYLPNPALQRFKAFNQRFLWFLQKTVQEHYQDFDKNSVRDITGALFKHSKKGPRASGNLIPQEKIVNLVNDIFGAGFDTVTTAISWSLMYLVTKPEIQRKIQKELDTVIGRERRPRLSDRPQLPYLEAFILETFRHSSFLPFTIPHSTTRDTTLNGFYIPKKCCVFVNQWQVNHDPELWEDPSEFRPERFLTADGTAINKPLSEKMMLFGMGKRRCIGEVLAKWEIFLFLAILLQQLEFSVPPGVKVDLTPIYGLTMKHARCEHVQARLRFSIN
Experimental: Table 6 In vitro liver metabolic stability and activity against CYPs of potent analogues. | column: CYP % Activity at 10 μM / 1A2

CYP2C9 = CYP2C9 (Homo sapiens, UniProt P11712); test: CYP inhibition; format: in vitro ADME
Chain of CYP2C9 (P11712 whole entry): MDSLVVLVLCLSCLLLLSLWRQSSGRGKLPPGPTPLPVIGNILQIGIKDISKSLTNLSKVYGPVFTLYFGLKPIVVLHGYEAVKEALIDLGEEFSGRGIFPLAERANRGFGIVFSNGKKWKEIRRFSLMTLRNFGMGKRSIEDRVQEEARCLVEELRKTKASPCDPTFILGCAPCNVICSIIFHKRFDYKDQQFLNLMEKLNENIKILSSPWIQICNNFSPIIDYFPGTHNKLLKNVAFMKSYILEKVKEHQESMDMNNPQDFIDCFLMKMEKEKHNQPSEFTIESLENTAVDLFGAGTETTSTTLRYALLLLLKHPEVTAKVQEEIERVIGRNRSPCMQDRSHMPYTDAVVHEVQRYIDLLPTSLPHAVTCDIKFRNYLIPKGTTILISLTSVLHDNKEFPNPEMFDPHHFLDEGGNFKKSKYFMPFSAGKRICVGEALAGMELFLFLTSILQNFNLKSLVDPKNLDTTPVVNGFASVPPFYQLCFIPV
Experimental: Table 6 In vitro liver metabolic stability and activity against CYPs of potent analogues. | column: CYP % Activity at 10 μM / 2C9

CYP2C19 = CYP2C19 (Homo sapiens, UniProt P33261); test: CYP inhibition; format: in vitro ADME
Chain of CYP2C19 (P33261 whole entry): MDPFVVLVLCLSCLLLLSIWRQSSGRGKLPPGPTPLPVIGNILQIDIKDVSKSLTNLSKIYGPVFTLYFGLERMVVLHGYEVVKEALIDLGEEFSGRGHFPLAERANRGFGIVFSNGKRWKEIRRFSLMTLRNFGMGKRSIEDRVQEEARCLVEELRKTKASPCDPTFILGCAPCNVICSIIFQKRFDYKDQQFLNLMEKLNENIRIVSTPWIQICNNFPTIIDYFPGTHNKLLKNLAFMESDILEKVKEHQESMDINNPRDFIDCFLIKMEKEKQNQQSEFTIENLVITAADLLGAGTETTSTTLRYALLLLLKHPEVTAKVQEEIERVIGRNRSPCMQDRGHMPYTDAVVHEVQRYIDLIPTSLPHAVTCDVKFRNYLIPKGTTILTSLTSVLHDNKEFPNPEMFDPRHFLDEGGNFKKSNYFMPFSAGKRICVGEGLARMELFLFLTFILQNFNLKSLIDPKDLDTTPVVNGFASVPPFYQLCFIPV
Experimental: Table 6 In vitro liver metabolic stability and activity against CYPs of potent analogues. | column: CYP % Activity at 10 μM / 2C19

CYP2D6 = CYP2D6 (Homo sapiens, UniProt P10635); test: CYP inhibition; format: in vitro ADME
Chain of CYP2D6 (P10635 whole entry): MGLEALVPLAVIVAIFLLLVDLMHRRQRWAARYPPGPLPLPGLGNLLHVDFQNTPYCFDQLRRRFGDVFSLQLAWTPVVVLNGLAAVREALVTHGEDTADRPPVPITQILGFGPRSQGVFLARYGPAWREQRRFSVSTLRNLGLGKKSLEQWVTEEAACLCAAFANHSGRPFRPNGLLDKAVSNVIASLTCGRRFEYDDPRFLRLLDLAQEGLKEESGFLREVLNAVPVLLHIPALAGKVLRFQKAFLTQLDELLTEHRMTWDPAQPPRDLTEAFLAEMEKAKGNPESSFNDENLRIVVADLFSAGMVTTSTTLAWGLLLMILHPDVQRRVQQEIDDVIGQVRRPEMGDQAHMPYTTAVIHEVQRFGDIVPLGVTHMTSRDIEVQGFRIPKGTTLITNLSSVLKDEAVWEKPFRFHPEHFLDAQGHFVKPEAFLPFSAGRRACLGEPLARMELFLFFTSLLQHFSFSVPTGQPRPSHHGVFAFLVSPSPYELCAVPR
Experimental: Table 6 In vitro liver metabolic stability and activity against CYPs of potent analogues. | column: CYP % Activity at 10 μM / 2D6

CYP3A4 = CYP3A4 (Homo sapiens, UniProt P08684); test: CYP inhibition; format: in vitro ADME
Chain of CYP3A4 (P08684 whole entry): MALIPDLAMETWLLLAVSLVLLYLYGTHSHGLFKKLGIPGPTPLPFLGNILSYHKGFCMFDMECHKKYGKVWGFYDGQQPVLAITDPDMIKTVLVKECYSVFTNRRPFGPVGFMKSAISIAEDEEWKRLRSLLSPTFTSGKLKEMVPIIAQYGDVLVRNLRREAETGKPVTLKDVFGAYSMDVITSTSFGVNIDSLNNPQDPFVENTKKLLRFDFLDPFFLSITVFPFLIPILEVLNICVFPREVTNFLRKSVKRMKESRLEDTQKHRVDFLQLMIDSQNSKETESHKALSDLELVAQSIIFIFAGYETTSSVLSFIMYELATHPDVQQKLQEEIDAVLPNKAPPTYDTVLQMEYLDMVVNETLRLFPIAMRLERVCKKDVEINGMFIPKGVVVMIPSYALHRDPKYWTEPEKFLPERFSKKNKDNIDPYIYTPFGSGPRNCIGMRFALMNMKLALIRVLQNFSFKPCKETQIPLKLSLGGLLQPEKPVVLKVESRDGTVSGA
Experimental: Table 6 In vitro liver metabolic stability and activity against CYPs of potent analogues. | column: CYP % Activity at 10 μM / 3A4

CDK12/CyclinK = CDK12/CyclinK (Homo sapiens, UniProt Q9NYV4); test: In vitro CDK12/cyclinK kinase assay; format: biochemical; set-up: purchased Reaction Biology Corp. (CRO that ran the assay)
Chain of CDK12/CyclinK (Q9NYV4 whole entry): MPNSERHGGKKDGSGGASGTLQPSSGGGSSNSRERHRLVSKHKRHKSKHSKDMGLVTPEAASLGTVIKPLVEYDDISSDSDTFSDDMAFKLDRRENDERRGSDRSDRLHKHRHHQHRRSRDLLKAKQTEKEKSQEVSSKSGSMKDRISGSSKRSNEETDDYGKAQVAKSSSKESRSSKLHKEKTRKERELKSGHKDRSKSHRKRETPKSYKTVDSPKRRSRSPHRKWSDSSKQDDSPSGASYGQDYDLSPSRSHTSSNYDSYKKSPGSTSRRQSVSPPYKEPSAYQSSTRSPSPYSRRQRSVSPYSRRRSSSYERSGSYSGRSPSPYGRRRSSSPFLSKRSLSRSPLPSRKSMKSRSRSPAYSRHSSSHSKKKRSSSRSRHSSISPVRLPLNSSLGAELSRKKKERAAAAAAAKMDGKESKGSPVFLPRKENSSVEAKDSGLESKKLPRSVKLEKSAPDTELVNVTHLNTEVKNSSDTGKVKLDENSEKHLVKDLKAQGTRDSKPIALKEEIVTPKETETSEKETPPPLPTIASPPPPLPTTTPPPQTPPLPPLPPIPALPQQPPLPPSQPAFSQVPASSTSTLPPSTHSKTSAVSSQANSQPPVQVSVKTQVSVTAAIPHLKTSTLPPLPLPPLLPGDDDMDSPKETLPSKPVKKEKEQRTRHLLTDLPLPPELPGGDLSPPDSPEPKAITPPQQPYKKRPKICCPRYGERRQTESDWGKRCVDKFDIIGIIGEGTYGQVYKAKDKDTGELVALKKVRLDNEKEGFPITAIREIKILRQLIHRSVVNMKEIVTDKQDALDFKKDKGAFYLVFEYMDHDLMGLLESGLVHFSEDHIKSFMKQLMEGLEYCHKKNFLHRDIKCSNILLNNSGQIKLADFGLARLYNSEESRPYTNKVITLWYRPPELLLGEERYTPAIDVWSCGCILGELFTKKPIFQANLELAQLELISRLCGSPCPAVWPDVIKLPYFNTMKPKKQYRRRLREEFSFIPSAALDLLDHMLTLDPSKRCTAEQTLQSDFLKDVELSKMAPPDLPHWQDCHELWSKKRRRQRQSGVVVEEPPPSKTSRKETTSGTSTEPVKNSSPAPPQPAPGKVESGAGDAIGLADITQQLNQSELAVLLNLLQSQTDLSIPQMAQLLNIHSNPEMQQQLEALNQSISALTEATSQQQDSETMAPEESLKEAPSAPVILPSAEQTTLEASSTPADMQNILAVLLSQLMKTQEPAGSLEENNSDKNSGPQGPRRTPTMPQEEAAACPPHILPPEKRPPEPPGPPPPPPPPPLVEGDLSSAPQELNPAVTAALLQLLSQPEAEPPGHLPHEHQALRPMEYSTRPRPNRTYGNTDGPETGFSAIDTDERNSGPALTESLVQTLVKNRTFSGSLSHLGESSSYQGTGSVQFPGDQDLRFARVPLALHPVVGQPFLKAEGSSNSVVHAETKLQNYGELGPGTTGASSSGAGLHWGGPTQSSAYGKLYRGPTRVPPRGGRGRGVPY
Chain of CDK12/CyclinK (O75909 whole entry partner): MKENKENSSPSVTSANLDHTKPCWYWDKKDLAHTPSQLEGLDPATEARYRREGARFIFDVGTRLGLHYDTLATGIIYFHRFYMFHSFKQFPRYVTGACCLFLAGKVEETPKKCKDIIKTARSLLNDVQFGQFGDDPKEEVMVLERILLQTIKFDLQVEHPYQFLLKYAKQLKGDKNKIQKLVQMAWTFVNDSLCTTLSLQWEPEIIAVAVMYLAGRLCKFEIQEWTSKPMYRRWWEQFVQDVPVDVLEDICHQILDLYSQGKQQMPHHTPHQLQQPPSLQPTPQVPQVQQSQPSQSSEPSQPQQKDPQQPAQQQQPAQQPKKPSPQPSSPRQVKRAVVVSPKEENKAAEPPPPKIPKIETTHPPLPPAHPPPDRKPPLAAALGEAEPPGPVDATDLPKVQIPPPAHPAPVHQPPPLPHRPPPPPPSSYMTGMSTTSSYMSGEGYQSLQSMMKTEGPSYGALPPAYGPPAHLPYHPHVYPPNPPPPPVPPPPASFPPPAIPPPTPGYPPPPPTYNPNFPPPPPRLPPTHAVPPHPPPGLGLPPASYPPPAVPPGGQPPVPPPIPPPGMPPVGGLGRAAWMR
Experimental: In vitro CDK12/cyclinK assays for all compounds and in vitro kinome-wide inhibition profiling of 30d at 10 μM were performed by a CRO company (Reaction Biology Corp., San Diego, CA, USA).

cyclinK = test: Western blot of cyclinK in SK-Br3 cells; format: cell-based, human; conditions: SK-Br3 cells, 0.2, 1 μM, 2 h
Experimental: (§3) The proteins were transferred to nitrocellulose membrane (Gelman Sciences, Ann Arbor, MI, USA) by electroblotting. The membranes were blocked with 5% non-fat dry milk (MB Cell, Seoul, Korea), incubated with primary antibodies for overnight at 4 °C. After the washing steps were performed with TBST solution, the membranes were incubated with HRP-conjugated secondary antibodies for 1 h at rt. After the secondary washing steps using TBST solution, protein bands on the membranes were visualized using enhanced chemiluminescence ECL detection reagent (Biorad Laboratories, Hercules, CA, USA).

Pol II p-CTD (Ser2) = test: Western blot of Pol II p-CTD (Ser2) in SK-Br3 cells; format: cell-based, human; conditions: SK-Br3 cells, 0.2, 1 μM, 2 h
Text: For Western blot analysis, the following antibodies were used: anti-Pol II CTD (2629S, Cell Signaling Technology, Danvers, MA, USA), anti-Pol II p-CTD (Ser2) (13499S, Cell Signaling Technology), anti-cyclinK (A301-939A-M, Bethyl Laboratories), anti-IRS1 (3407S, Cell Signaling Technology), anti-WNT1 (SC-514531, Santa Cruz Biotechnology, Dallas, TX, USA), anti-β-actin (MAB1501R, Millipore, Burlington, MA, USA), and horseradish peroxidase (HRP)-conjugated secondary antibodies (anti-mouse GTX213112-01; anti-rabbit GTX213110-01) (Genetex, Irvine, CA, USA).
as §3, with “Cells were lysed with lysis buffer containing 50 mM Tris pH 7.4, 150 mM NaCl, 1 mM EDTA, 1% NP-40, and 0.25% sodium deoxycholate supplemented with protease-inhibitor and phosphatase-inhibitor cocktails. The lysate samples (25 μg/lane) were loaded onto 6–12% sodium dodecyl sulfate polyacrylamide gel and separated by electrophoresis (SDS-PAGE). The proteins” for “The proteins”

[2] = Table 5, means and standard deviations from three independent assays, read-out: CDK12/CyclinK (IC50/μM)
[3] = Tables 1-4, read-out: CDK12/CyclinK (IC50/μM)

Compound | GI50 (HCC1954 cells) | GI50 (SK-Br3 cells) | remaining at 30 min, 1 μM ([1]; dog) | remaining at 30 min, 1 μM ([1]; human) | remaining at 30 min, 1 μM ([1]; mouse) | CYP % Activity at 10 μM 1A2 (CYP1A2) | CYP % Activity at 10 μM 2C9 (CYP2C9) | CYP % Activity at 10 μM 2C19 (CYP2C19) | CYP % Activity at 10 μM 2D6 (CYP2D6) | CYP % Activity at 10 μM 3A4 (CYP3A4) | IC50 (CDK12/CyclinK; [2]) | IC50 (CDK12/CyclinK; read-out: CDK12/cyclinK IC50) | cyclinK level (Western blot) (cyclinK) | PolII p-CTD (Ser2) level (Western blot) (Pol II p-CTD (Ser2)) | IC50 (CDK12/CyclinK; [3])
CCn1cnc2c(NCc3ccc(-c4ccnc(C)c4)nc3)nc(-c3cnc(N)nc3)nc21 [Compound 30b, 2-(2-Aminopyrimidin-5-yl)-9-ethyl-N-((2′-methyl-[2,4′-bipyridin]-5-yl)methyl)-9H-purin-6-amine] | 0.08 ± 0.007 µM | 0.09 ± 0.008 µM | 53.6% | 40.6% | 45% | 74.9% | 82.9% | 75.4% | 85.7% | 72.4% | 0.028 ± 0.008 µM | < 0.03 µM |  |  | 
CC(C)n1cnc2c(NCc3ccc(-c4ccccn4)cn3)nc(-c3cccnc3)nc21 [Compound 17a, N-([2,3′-Bipyridin]-6′-ylmethyl)-9-isopropyl-2-(pyridin-3-yl)-9H-purin-6-amine] | 0.106 ± 0.011 µM | 0.151 ± 0.025 µM |  |  |  |  |  |  |  |  |  |  | most prominent cyclinK degradation; also recorded: downregulated Pol II p-CTD (Ser2) and cyclinK in a dose-dependent manner | downregulated Pol II p-CTD (Ser2) and cyclinK in a dose-dependent manner | 0.433 µM
CC(C)n1cnc2c(NCc3ccc(-c4cccnc4)cn3)nc(-c3cccnc3)nc21 [Compound 17b, N-([3,3′-Bipyridin]-6-ylmethyl)-9-isopropyl-2-(pyridin-3-yl)-9H-purin-6-amine] | 0.627 ± 0.128 µM | 0.862 ± 0.178 µM |  |  |  |  |  |  |  |  |  |  | downregulated Pol II p-CTD (Ser2) and cyclinK in a dose-dependent manner | downregulated Pol II p-CTD (Ser2) and cyclinK in a dose-dependent manner | 0.582 µM
CCn1cnc2c(NCc3ccc(-c4ccnc(C)c4)nc3)nc(-c3cncnc3)nc21 [Compound 30c, 9-Ethyl-N-((2′-methyl-[2,4′-bipyridin]-5-yl)methyl)-2-(pyrimidin-5-yl)-9H-purin-6-amine] | 0.157 ± 0.022 µM | 0.189 ± 0.057 µM | 79.5% | 27.3% | 34% | 68.6% | 67.5% | 73.9% | 88.8% | 31.8% | 0.064 ± 0.012 µM |  |  |  | 
CC(C)n1cnc2c(NCc3ccc(-c4ccncc4)cn3)nc(-c3cccnc3)nc21 [Compound 17d, N-([3,4′-Bipyridin]-6-ylmethyl)-9-isopropyl-2-(pyridin-3-yl)-9H-purin-6-amine] | 0.887 ± 0.04 µM | 0.741 ± 0.034 µM |  |  |  |  |  |  |  |  |  |  | downregulated Pol II p-CTD (Ser2) and cyclinK in a dose-dependent manner | downregulated Pol II p-CTD (Ser2) and cyclinK in a dose-dependent manner | 0.627 µM
CC(C)n1cnc2c(NCc3ccc(-c4ccncc4)nc3)nc(-c3cccnc3)nc21 [Compound 17g, N-([2,4′-Bipyridin]-5-ylmethyl)-9-isopropyl-2-(pyridin-3-yl)-9H-purin-6-amine] | 0.494 ± 0.048 µM | 0.804 ± 0.095 µM |  |  |  |  |  |  |  |  |  |  |  |  | 0.153 µM
Cc1cc(N)n(-c2nc(NCc3ccc(-c4cccnc4)nc3)c3ncn(C(C)C)c3n2)n1 [Compound 24, N-([2,3′-Bipyridin]-5-ylmethyl)-2-(5-amino-3-methyl-1H-pyrazol-1-yl)-9-isopropyl-9H-purin-6-amine] | 3.44 ± 0.177 µM | 5.16 ± 0.365 µM |  |  |  |  |  |  |  |  |  |  |  |  | 2.35 µM
Cc1cc(-c2ccc(CNc3nc(-c4cccnc4)nc4c3ncn4C(C)C)nc2)ccn1 [Compound 17e, 9-Isopropyl-N-((2′-methyl-[3,4′-bipyridin]-6-yl)methyl)-2-(pyridin-3-yl)-9H-purin-6-amine] | 0.23 ± 0.044 µM | 0.277 ± 0.038 µM |  |  |  |  |  |  |  |  |  |  | downregulated Pol II p-CTD (Ser2) and cyclinK in a dose-dependent manner | downregulated Pol II p-CTD (Ser2) and cyclinK in a dose-dependent manner | 0.481 µM
